“Also recorded” adds a separate entry of the source.
What was measured:
[1] = molecular target: T1, Aβ40 (Homo sapiens, UniProt P05067); experiment: Thioflavin-T fibrillization assay; format: biochemical
T1 construct: host or cells: chemical solid-phase peptide synthesis (no expression host)
Excerpt: Synthetic Aβ 1-40 peptide (sequence: […]) was synthesized at the W.M. Keck Foundation Facility (Yale University, New Haven, Conn.) by solid-phase technique on a p-methyl-benzhydrylamine resin, using a Biosearch SAM 2 synthesizer and purified by high performance liquid chromatography (HPLC) with the use of a reverse-phase support medium (Delta-Bondapak) on a 0.78×30 cm column with a 0-66% linear gradient of acetonitrile in 0.1% (v/v) trifluroacetic acid, as previously described. The peptide content of the eluate was monitored by measurement of its absorption at 214 nm. To verify the sequence and purity of the peptide, linear, time-of-flight mass spectrometry was performed at the Skirball Institute at New York University. For aggregation studies the peptide was diluted in 1,1,1,3,3,3-hexafluoro-2-propanol (HFIP; Sigma St. Loius, Mo.) at a concentration of 10 mM/mL, aliquoted and lyophilized. HFIP treatment renders peptides monomeric with minimal β-sheet content. Lyophilized peptides were stored at −80° C. and resuspended immediately prior to each experiment in the appropriate diluent.
The effect of compounds of the present invention on aggregation of Aβ 1-40 peptide was tested using a Thioflavin-T assay according to previously published methods. Aggregation of Aβ 1-40 incubated alone was measured for comparison. Aβ 1-40 was HFIP treated (as described above) and reconstituted in 100 mM Tris buffer (pH 7.4) to obtain a 100 μmol/L concentration. Stock of investigational compounds (50 mmol/L stock diluted in DMSO) was added to Aβ 1-40 to achieve of a concentration 10 or 100 μmol/L of investigational compound in 100 μmol/L of Aβ 1-40. All incubations were performed over a period of 7 days at 37° C. and the incubation mixture was slowly mixed for 6 hours every 24 h. At the conclusion of the experiment samples containing 15 μg of Aβ 1-40 with and without investigational compounds were added to 1 mL of 50 mM glycine, pH 9.2 and 2 μM of Thioflavin-T (Sigma Chemical, Co.; St. Louis, Mo.). Fluorescence was measured at an excitation of 435 nm and an emission of 485 nm in a Perkin-Elmer LS-50B fluorescence spectrophotometer (Perkin Elmer Instruments, Shelton, Conn.). A time scan of fluorescence was performed and three values after the decay reached a plateau (280, 290, 300 seconds) were averaged. The background fluorescence of 40 μL of Tris buffer added to 2 μM/L of Thioflavin-T solution was subtracted. Samples were run in duplicate. Differences in amount of fibrils formed in the presence of investigational compounds were evaluated by means of one-way ANOVA followed by a Dunnet post-hoc test using Statistica (version 6.1, StatSoft Inc., OK).
[…] monomerized synthetic Aβ40 was incubated in 0.1M Tris pH 7.0, T=37° C. for 8 days in the presence of 0-100 μM concentration of compounds. […] An arrow indicates Aβ monomers clustered in ill developed protofibril. (C) Oligomerization assay. ARN4261 and ARN4224 reduced the amount of Aβ oligomers by 78% and 74%, respectively p<0.001. A compound 69b (GKLVFNmgA) was used as a positive control. 69b is homologous to Aβ sequence 17-21 and contains N-methyl glycine (Nmg), which renders it capable of anti-fibrillization and anti-oligomerization effect. (D) Principle of oligomerization assay. 100 μM Aβ40 was aggregated alone or with the addition of 10 μM of tested compounds [1:10 compound: Ab ratio] for 24 h in conditions promoting oligomers assembly, i.e., DMEM/F-12 medium+0.2% SDS, T=4° C. Prior to SDS-PAGE in non-reducing conditions samples were treated with glutaraldehyde. A strong smear of Aβ oligomers is seen between 37 and 70 KDa markers (arrows) in lane 2, and a dense band below the 25 KDa marker reflects Aβ monomers non-dissociated by 10% polyacrylamide gel. No oligomers above 37 KDa marker are seen in lane 1 containing only Aβ monomers run as a control. […] (E) TEM of Aβ oligomers. […] Yellow arrowhead indicates smaller oligomers.

[2] = system: APP; experiment: APP, C99, C83 and sAPP levels in 751APPSW CHO cells (immunoblot, immunostaining); format: cell-based, human
[3] = system: APP mRNA; experiment: APP mRNA level in 751APPSW CHO cells; format: cell-based, human
Procedure: D. APP was immunoprecipitated with 22C11 mAb against its N-terminus. Representative radiographs (B) and densitometric results averaged from three independent experiments are shown (A). […] Two sets of experiments were conducted using either actin or GAPDH as housekeeping genes.

[4] = system: Aβ42; experiment: Secretion of Aβ42 by 751APPSW CHO cells (sandwich ELISA); format: cell-based; settings: 48 hr; for Emax: read-out: EMAX of Aβ42 production inhibition; for IC50: read-out: IC50% of Aβ42 production
Procedure: In addition to studying the effect of ARN4261 and ARN2966 on Aβ oligomerization and fibrillization, we have explored their properties in respect to the modulation of Aβ production using CHO clones stably transfected with WT human APP751 and double Swedish APP751 mutant (KM670/671NL). The results in FIGS. 3(A) and 3(B) show inhibitory effect of ARN4261 and ARN2966 on secretion of Aβ40 and Aβ42 by 751APPSW CHO cells exposed to ARN compounds for 48 hr. Values are expressed as % of Aβ40 and Aβ42 levels in conditioned media (CM) of untreated cells. FIG. 3(C) Concentrations of Aβ40 and Aβ42 in 751APPSWCHO cell CM under increasing concentrations of ARN2966. 751APPSWCHO cells secrete Aβ40 and Aβ42 in proportions 9:1, akin to the proportions of Aβ peptides produced by neurons. […] Aβ40 and Aβ42 levels were determined using sandwich ELISA where C-terminal specific anti Aβ40 and Aβ42 mAbs were used as capture Abs and biotinylated 4G8 as the detection Ab. […] We also confirmed that ARN2966 inhibited secretion of Aβ by primary neuronal cultures derived from Tg2576 AD Tg mice.

T1 sequence (P05067 672-711): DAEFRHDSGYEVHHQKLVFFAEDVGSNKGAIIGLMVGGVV

SMILES | EC50 ([1]; 100 μM HFIP monomerized synthetic Aβ40, 0.1M Tris pH 7.0, 37° C., 8 days, 0-100 μM compound, read-out: EC50 of fibril reduction) [µM] | Emax ([1]; pH 7, read-out: EMAX (% of maximal fibril reduction)) [%] | TEM analysis of Aβ fibrils ([1]; transmission electron microscopy) | level of APP FL, C99 and C83 in cell lysates ([2]; 751APPSW CHO clone) | APP mRNA level [3] | Emax [4] [%] | IC50 [4] [µM] | behaviour in anti-Aβ aggregation assays ([1]; compared with ARN4261) | anti-APP immunostaining with 22C11 mAb ([2]; 751APPSW CHO cells) | concentrations at which reduction in APP FL level is seen ([2]; 751APPSW CHO clone) [µM] | sAPP (sAPPα and total sAPP stub) in conditioned media ([2]; 751APPSW CHO clone) | level of β-actin ([2]; 751APPSW CHO clone, increasing concentration)
Oc1ccccc1N=Cc1ccccn1 [ARN4261, 2-(Pyridin-2-ylmethyleneamino)-phenol] | 16 | 88 | markedly reduced density and length of Aβ fibrils | reduce the level of full length APP (APP FL) and both C99 and C83 APP stubs; also recorded: reduced levels of full length APP (APP FL) and C99 and C83 APP stubs | lack of substantial effect | 98.9 ± 0.4 | 6.54 |  |  |  |  | 
Oc1ccccc1NCc1ccccn1 [ARN2966, 2-[(pyridine-2-ylmethyl)-amino]-phenol] |  |  |  | reduce the level of full length APP (APP FL) and both C99 and C83 APP stubs; also recorded: reduced levels of full length APP (APP FL) and C99 and C83 APP stubs | No change; also recorded: lack of substantial effect | 84.5 | 5.53 | behaves comparably to ARN4261 | reduced without evidence of staining redistribution; also recorded: Reduced anti-APP staining | ≥ 10 | reduced levels | no apparent change

From patent publication US8658677B2, “Pyridyl-2-methylamino compounds, compositions and uses thereof” (Aria Neurosciences Inc., priority 2011, dated 2014)
